Test system: EMT6 syngeneic mouse mammary carcinoma tumor model
Assay: EMT6 syngeneic mouse mammary carcinoma tumor model
Type: in vivo
Description: A syngeneic mouse tumor model is used to evaluate potential combination effect of merestinib and anti-PD-L1 antibody in the EMT6 model (Rockwell, S C, Kallman, R F, Fajardo, L F. Characteristics of a serially transplanted mouse mammary tumor and its tissue-culture-adpated derivative. J Nat Cancer Institute. 1972, 49:735-749). Anti-PD-L1 antibody surrogate (178G7, LSN3370181) (Eppihimer et al. Microcirculation 2002:9(2):133) is used in the mouse study.
Female BALB/c mice (18-20 gm) from Envigo (Harlan Laboratories) are used for this study. Food and water are available ad libitum. Animals are acclimated for at least one week prior to any experimental manipulation. The study is performed in accordance with AALAC accredited institutional guidelines.
Merestinib is formulated as a solution in 10% PEG 400 in 90% (20% Captisol in H2O) once weekly. Anti-PD-L1 antibody (LSN3370181) is formulated in PBS (phosphate buffered saline).
EMT6 cells (from internal in vivo pharmacology cell culture group lot EMT6-3184882) are used for implantation. Approximately 5×10^5 cells in HBSS are implanted subcutaneously into the right hind flank of the animal under anesthesia. Prior to commencing drug administration, animals are randomized to treatment groups based on body weight.
There are 4 arms in this study with 15 animals per group: 1) vehicle control; 2) merestinib 12 mg/kg QD×21, PO; 3) LSN3370181 (anti-PD-L1) 0.5 mg/mouse once weekly for 3 weeks via IP; 4) combination merestinib+anti-PD-L1 antibody; combination therapies follow the same dosing schedule as the monotherapies. Treatment is initiated on Day 6 post tumor cell implantation and continued for 21 days (final dose administered on Day 26). Tumor volumes and body weight are measured bi-weekly. Tumor volume is estimated by using the formula: v=l×w^2×0.536 where l=larger of measured diameter and w=smaller of perpendicular diameter. Animals are sacrificed using CO2 and cervical dislocation.
On Day 20 post tumor cell implant, 5 animals from each group are taken down for harvesting of spleens and tumors for mechanism of action (MOA) studies (FACs analysis, gene expression). The remaining animals continue with treatment as described above. At the end of the dosing period (Day 27 post tumor cell implant), animals are observed for tumor growth for 43 days. Animals are removed from study when tumor burden reached or exceeded 2500 mm^3. To assess immune memory, on Day 70 post tumor cell implant, animals that remained on study (complete responders and partial responders) are rechallenged with new implant of EMT6 cells on the contralateral side and observed for tumor growth for 15 days.
Tumor volume is transformed to the log scale to equalize variance across time and treatment groups. The log volume data are analyzed with a two-way repeated measures analysis of variance by time and treatment using the MIXED procedures in SAS software (Version 9.3). The correlation model for the repeated measures is spatial power. Treated groups are compared to the control group at each time point. The MIXED procedure is also used separately for each treatment group to calculate least squares means and standard errors at each time point. Both analyses account for the autocorrelation within each animal and the loss of data that occurs when animals are removed or lost before end of study.
Bayesian ordinal logistic regression analysis is used to obtain the posterior probability of the combination treatment effect for synergy, additivity or antagonism was conducted on Day 69 for this study. Each animal was classified into one of 3 response categories, based on its Day 69 tumor volume and by comparison to the vehicle data: I) Non-responder (NR), II) Partial Responder (PR), III) Complete Responder (CR). CR is defined by tumor volume […] at Day 69. NR is defined as unperturbed exponential growth, similar to vehicle animals. […]

## Cc1ccc(C(=O)Nc2ccc(Oc3cc4cnn(C)c4cc3-c3cn[nH]c3)c(F)c2)c(=O)n1-c1ccc(F)cc1 [merestinib, N-(3-fluoro-4-(1-methyl-6-(1H-pyrazol-4-yl)-1H-indazol-5-yloxy)phenyl)-1-(4-fluorophenyl)-6-methyl-2-oxo-1,2-dihydropyridine-3-carboxamide]
Day 31
  Regression (%): No tumor regression
  T/C %: 35.2%
Animals of 10/group
  Day 69 Treatment Responders NR (Non-responder): 10
  Day 69 Treatment Responders PR (Partial Responder): 0
Animals of 10/group, tumor volume ≤25 mm^3
  Day 69 Treatment Responders CR (Complete Responder): 0
mouse, in vivo
  single agent anti-tumor activity: weak single agent anti-tumor activity

Source: patent US20190269666A1, “COMBINATION THERAPY WITH MERESTINIB AND ANTI-PD-L1 OR ANTI-PD-1 INHIBITORS FOR USE IN THE TREATMENT OF CANCER” (Eli Lilly and Company, priority 2016, published 2019)
